Here are results for 76 molecules from US8404683B2, “Inhibitors of the interaction between MDM2 and P53” (Janssen Pharmaceutical N.V., priority 2004, dated 2013).

Some results are limits rather than exact numbers.

In the experiment the test system is U87MG cells. Kind of experiment: Proliferation assay (MTT-based) on U87MG tumour cells. Conditions: Homo sapiens, U-87 MG, 96 h, 4 days of incubation, negative log value of the IC50-value, read-out: cell proliferation pIC50 (converted). A digest of the protocol:
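Human glioblastoma U87MG cells (wild-type p53) exposed to compound for 4 days at ≤0.1% DMSO, then MTT added for 2 h at 37 °C and absorbance read at 540 nm. Growth expressed as % of untreated control; IC50 by probit analysis, reported as pIC50.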

In the case of `CCOc1cc(Nc2ccncc2)ccc1NCCc1c[nH]c2ccccc12` [Compound 2], the IC50 is 63.1 nM.
Turning to `Clc1ccc2[nH]cc(CCNc3ccc(Nc4ccncc4)cc3)c2c1` [Compound 182], the IC50 is 1580 nM.
For the molecule `O=C(C(Cc1c[nH]c2ccccc12)Nc1ccc(Nc2ccncc2)cc1)N1CCCC1CO` (stereo not shown) [Compound 208], the IC50 was greater than 10000 nM.
The same measure for `CCOC(C)c1cc(Nc2ccc(NCCc3c[nH]c4ccccc34)cc2)ccn1` (stereo not shown) [Compound 149]: 2000 nM; for `COC(C)c1cc(Nc2ccc(NCCc3c[nH]c4ccccc34)cc2)ccn1` (stereo not shown) [Compound 150]: 3160 nM.
For `CCc1cc(Nc2ccc(NCCc3c[nH]c4ccccc34)cc2)c2ccccc2n1` [Compound 33], the IC50 was 63.1 nM.
In the case of `O=C(C(Cc1c[nH]c2ccccc12)Nc1ccc(Nc2ccncc2)cc1)N1CCN(CCOCCO)CC1` (stereo not shown) [Compound 116] it was greater than 10000 nM.
The same measure for `c1ccc2c(CCNc3ccc(Nc4ccnc5c4CCC5)cc3)c[nH]c2c1` [Compound 4]: 10 nM.
For `c1ccc(-c2cc(Nc3ccc(NCCc4c[nH]c5ccccc45)cc3)ccn2)cc1` [Compound 39], the IC50 is 631 nM.
The same measure for `CNCc1cc(Nc2ccc(NCCc3c[nH]c4ccccc34)cc2)ccn1` [Compound 154]: 3160 nM; for `COC(=O)COCc1cc(Nc2ccc(NCCc3c[nH]c4ccccc34)cc2)ccn1` [Compound 98]: 3980 nM.
In the case of `COc1ccc2nccc(Nc3ccc(NCCc4c[nH]c5ccccc45)cc3)c2c1` [Compound 24] it was less than 10 nM; in that of `O=c1cc(Nc2ccc(NCCc3c[nH]c4ccccc34)cc2)cc[nH]1` [Compound 173], greater than 10000 nM; in that of `CC(NCCNC(=O)OCc1ccccc1)c1cc(Nc2ccc(NCCc3c[nH]c4ccccc34)cc2)ccn1` (stereo not shown) [Compound 88], 3160 nM.
For `Fc1ccc2c(CCNc3ccc(Nc4ccncc4)cc3)c[nH]c2c1` [Compound 184], the IC50 is 1000 nM.
With `O=C(OCc1ccccc1)C(Cc1c[nH]c2ccccc12)Nc1ccc(Nc2ccncc2)cc1` (stereo not shown) [Compound 67], the IC50 was 1260 nM.
As for `OCCc1cc(Nc2ccc(NCCc3c[nH]c4ccccc34)cc2)ccn1` [Compound 51], the IC50 was 316 nM.
With `OCCNCc1cc(Nc2ccc(NCCc3c[nH]c4ccccc34)cc2)ccn1` [Compound 152], the IC50 was 10000 nM.
In the case of `O=C(CCc1c[nH]c2ccccc12)Nc1cccc(Nc2ccncc2)c1` [Compound 82] it was greater than 10000 nM; in that of `OCCCNCc1cc(Nc2ccc(NCCc3c[nH]c4ccccc34)cc2)ccn1` [Compound 156], 3160 nM; in that of `COCC1(O)CCN(C(=O)C(Cc2c[nH]c3ccccc23)Nc2ccc(Nc3ccncc3)cc2)CC1` (stereo not shown) [Compound 222], 3980 nM.
The same measure for `c1ccc2c(CCNc3ccc(Nc4ccnc(CN5CCNCC5)c4)cc3)c[nH]c2c1` [Compound 91]: 2510 nM; for `CC(NCCN)c1cc(Nc2ccc(NCCc3c[nH]c4ccccc34)cc2)ccn1` (stereo not shown) [Compound 89]: 3980 nM.
The same measure for `COc1cc(Nc2ccnc3ccccc23)ccc1NCCc1c[nH]c2ccccc12` [Compound 16]: 39.8 nM; for `N#CC=Cc1ccc2c(CCNc3ccc(Nc4ccncc4)cc3)c[nH]c2c1` [Compound 194]: 6310 nM.
In the case of `O=C(O)c1cc(Nc2ccc(NCCc3c[nH]c4ccccc34)cc2)ccn1` [Compound 58], the IC50 was greater than 10000 nM.
Take `COC(=O)c1cc(Nc2ccc(NCCc3c[nH]c4ccccc34)cc2)cc(C(=O)OC)n1` [Compound 109]: the IC50 is greater than 10000 nM.
The same measure for `COCc1cc(Nc2ccc(NCCc3c[nH]c4ccccc34)cc2)ccn1` [Compound 64]: 398 nM.
The same measure for `OCc1cc(Nc2ccc(NCCc3c[nH]c4ccccc34)cc2)ccn1` [Compound 37]: 158 nM; for `CC(C)(C)C(O)c1cc(Nc2ccc(NCCc3c[nH]c4ccccc34)cc2)ccn1` (stereo not shown) [Compound 138]: 1580 nM; for `OCC(Cc1c[nH]c2ccccc12)Nc1ccc(Nc2ccncc2)cc1` (stereo not shown) [Compound 48]: 158 nM.
In the case of `O=C(O)CCNCc1cc(Nc2ccc(NCCc3c[nH]c4ccccc34)cc2)ccn1` [Compound 97] it was greater than 10000 nM.
Regarding `O=C(NCCCCCO)C(Cc1c[nH]c2ccccc12)Nc1ccc(Nc2ccncc2)cc1` (stereo not shown) [Compound 118], the IC50 is greater than 10000 nM.
In the case of `O=C(O)Cc1cc(Nc2ccc(NCCc3c[nH]c4ccccc34)cc2)ccn1` [Compound 70], the IC50 was 251 nM.
Regarding `CCC(O)c1cnccc1Nc1ccc(NCCc2c[nH]c3ccccc23)cc1` (stereo not shown) [Compound 127], the IC50 was 7940 nM.
`O=C(c1cc(Nc2ccc(NCCc3c[nH]c4ccccc34)cc2)ccn1)C1CC1` [Compound 204]: the IC50 is 7940 nM.
Turning to `c1cc(NCCCc2c[nH]c3ccccc23)cc(Nc2ccncc2)c1` [Compound 84], the IC50 is 1580 nM.
Turning to `COc1ccc2c(CCNc3ccc(Nc4ccnc(CO)c4)cc3)c[nH]c2c1` [Compound 180], the IC50 is 631 nM.
In the case of `Cc1cc(Nc2ccc(NCCc3c[nH]c4ccccc34)cc2)c2ccccc2n1` [Compound 12] it was 12.6 nM.
The same measure for `Cc1[nH]c2ccccc2c1CCNc1ccc(Nc2ccncc2)cc1` [Compound 77]: 3160 nM.
Regarding `COc1ccc2c(CCNc3ccc(Nc4ccnc5ccccc45)cc3)c[nH]c2c1` [Compound 13], the IC50 is 25.1 nM.
Take `NC(=O)C(Cc1c[nH]c2ccccc12)Nc1ccc(Nc2ccncc2)cc1` (stereo not shown) [Compound 65]: the IC50 was greater than 10000 nM.
In the case of `CCOc1cc(Nc2ccnc(C(C)O)c2)ccc1NCCc1c[nH]c2cc(OC)ccc12` (stereo not shown) [Compound 205] it was 794 nM; in that of `O=C(NCCO)c1cc(Nc2ccc(NCCc3c[nH]c4ccccc34)cc2)ccn1` [Compound 52], 501 nM.
The same measure for `CC1(CO)CCCN(C(=O)C(Cc2c[nH]c3ccccc23)Nc2ccc(Nc3ccncc3)cc2)C1` (stereo not shown) [Compound 219]: 3980 nM; for `Cc1ccc2[nH]cc(CCNc3ccc(Nc4ccnc(CO)c4)cc3)c2c1` [Compound 189]: 3160 nM.
In the case of `COc1ccc2c(CCNc3ccc(Nc4ccnc(CO)c4)cc3OC)c[nH]c2c1` [Compound 181] it was 251 nM; in that of `c1cnc2[nH]cc(CCNc3ccc(Nc4ccncc4)cc3)c2c1` [Compound 190], 3980 nM; in that of `c1ccc2c(CCCCNc3ccc(Nc4ccncc4)cc3)c[nH]c2c1` [Compound 74], 1580 nM.
As for `CS(=O)(=O)NCc1cc(Nc2ccc(NCCc3c[nH]c4ccccc34)cc2)ccn1` [Compound 129], the IC50 was 2000 nM.
The same measure for `COC(=O)c1cnccc1Nc1ccc(NCCc2c[nH]c3ccccc23)cc1` [Compound 124]: 5010 nM; for `COCC(O)C1CCN(C(=O)C(Cc2c[nH]c3ccccc23)Nc2ccc(Nc3ccncc3)cc2)CC1` (stereo not shown) [Compound 223]: 794 nM; for `c1ccc2c(CCNc3ccc(Nc4ccnnc4)cc3)c[nH]c2c1` [Compound 119]: greater than 10000 nM.
In the case of `CC(NCCO)c1cc(Nc2ccc(NCCc3c[nH]c4ccccc34)cc2)ccn1` (stereo not shown) [Compound 147] it was 5010 nM.
Take `O=C(C(Cc1c[nH]c2ccccc12)Nc1ccc(Nc2ccncc2)cc1)N1CCC(CO)C1` (stereo not shown) [Compound 209]: the IC50 was greater than 10000 nM.
As to `c1ccc2c(CCNc3ccc(Nc4ccnc(CNCCCN5CCOCC5)c4)cc3)c[nH]c2c1` [Compound 166], the IC50 is greater than 10000 nM.
In the case of `CNC(=O)c1cc(Nc2ccc(NCCc3c[nH]c4ccccc34)cc2)ccn1` [Compound 63] it was 1580 nM.
Turning to `c1ccc(CNCc2cc(Nc3ccc(NCCc4c[nH]c5ccccc45)cc3)ccn2)cc1` [Compound 168], the IC50 was 2000 nM.
The same measure for `Cc1cnccc1Nc1ccc(NCCc2c[nH]c3ccccc23)cc1` [Compound 60]: 100 nM; for `Clc1cccc(CC(CNc2ccc(Nc3ccncc3)cc2)c2c[nH]c3ccccc23)c1` (stereo not shown) [Compound 199]: 2000 nM; for `c1ccc(CCCOCc2cc(Nc3ccc(NCCc4c[nH]c5ccccc45)cc3)ccn2)cc1` [Compound 171]: greater than 10000 nM.
As to `c1ccc(CC(CNc2ccc(Nc3ccncc3)cc2)c2c[nH]c3ccccc23)cc1` (stereo not shown) [Compound 101], the IC50 is 2510 nM.
With `NCCNCc1cc(Nc2ccc(NCCc3c[nH]c4ccccc34)cc2)ccn1` [Compound 93], the IC50 was greater than 10000 nM.
With `c1ccc2c(CCNc3ccc(Nc4ccnc5[nH]ccc45)cc3)c[nH]c2c1` [Compound 198], the IC50 was 1260 nM.
With `OCc1cc(Nc2ccc(NCCc3c[nH]c4ccccc34)cc2)c2ccccc2n1` [Compound 14], the IC50 was 39.8 nM.
In the case of `CC(O)C1CCN(C(=O)C(Cc2c[nH]c3ccccc23)Nc2ccc(Nc3ccncc3)cc2)CC1` (stereo not shown) [Compound 225] it was 158 nM.
`COc1cc(Nc2ccncc2)ccc1NCCc1c[nH]c2ccccc12` [Compound 66]: the IC50 was 63.1 nM.
For the molecule `COc1ccc2nc(C)cc(Nc3ccc(NCCc4c[nH]c5ccccc45)cc3)c2c1` [Compound 20], the IC50 is 100 nM.
With `CC(C)(CO)C1CCN(C(=O)C(Cc2c[nH]c3ccccc23)Nc2ccc(Nc3ccncc3)cc2)CC1` (stereo not shown) [Compound 220], the IC50 was 6310 nM.
For `FC(F)(F)c1cccc2c(Nc3ccc(NCCc4c[nH]c5ccccc45)cc3)ccnc12` [Compound 31], the IC50 was 1260 nM.
In the case of `OCCOCc1cc(Nc2ccc(NCCc3c[nH]c4ccccc34)cc2)ccn1` [Compound 99] it was 2510 nM; in that of `c1ccc2c(CCNc3ccc(Nc4ccncc4)cc3)c[nH]c2c1` [Compound 36], 200 nM; in that of `Clc1cc(Nc2ccncc2)ccc1NCCc1c[nH]c2ccccc12` [Compound 45], 1000 nM.
The same measure for `Cc1cnccc1Cc1cnccc1Nc1ccc(NCCc2c[nH]c3ccccc23)cc1` [Compound 125]: 3980 nM.
On to `CCOc1cc(Nc2ccnc3ccccc23)ccc1NCCc1c[nH]c2ccccc12` [Compound 35], for which the IC50 was 39.8 nM.
In the case of `Clc1ccc2c(CCNc3ccc(Nc4ccnc5ccccc45)cc3)c[nH]c2c1` [Compound 26], the IC50 is 100 nM.
